The text below walks through data of ChEMBL document CHEMBL1201862, “PubChem BioAssay data set” (2004).

Assay [1] has as its system HEK293. The assay is described as follows: optical interference in Abeta FP readout, dose response, artefact control for IDE activator project, biochemical, fluorescence polarization (AID 588442). As to conditions: Homo sapiens. Type of assay: functional, cell-based.
For the next assay, the target named is Nonstructural protein 1 (Influenza A virus, UniProt Q194T2). It is filed as functional, Influenza A virus (A/California/07/2009(H1N1)).
Nonstructural protein 1, sequence (Q194T2 whole entry): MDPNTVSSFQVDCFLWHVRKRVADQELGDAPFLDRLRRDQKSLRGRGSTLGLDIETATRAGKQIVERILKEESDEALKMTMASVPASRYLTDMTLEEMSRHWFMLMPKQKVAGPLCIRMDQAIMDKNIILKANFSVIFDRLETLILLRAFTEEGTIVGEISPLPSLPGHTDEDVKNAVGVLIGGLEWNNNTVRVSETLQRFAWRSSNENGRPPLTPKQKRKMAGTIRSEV
Assay [2] addresses Glutathione-S-transferase (Schistosoma japonicum, UniProt Q26513). The assay is described as follows: GST-antibody interaction or FRET quenching – biochemical, TR-FRET, artefact control for Vif-APOBEC3G degradation inhibitor project, dose response (AID 1117362). Type of assay: functional.
Assay [3] deals with T1, Insulin-degrading enzyme (Homo sapiens, UniProt P14735).
T1 sequence (P14735 whole entry): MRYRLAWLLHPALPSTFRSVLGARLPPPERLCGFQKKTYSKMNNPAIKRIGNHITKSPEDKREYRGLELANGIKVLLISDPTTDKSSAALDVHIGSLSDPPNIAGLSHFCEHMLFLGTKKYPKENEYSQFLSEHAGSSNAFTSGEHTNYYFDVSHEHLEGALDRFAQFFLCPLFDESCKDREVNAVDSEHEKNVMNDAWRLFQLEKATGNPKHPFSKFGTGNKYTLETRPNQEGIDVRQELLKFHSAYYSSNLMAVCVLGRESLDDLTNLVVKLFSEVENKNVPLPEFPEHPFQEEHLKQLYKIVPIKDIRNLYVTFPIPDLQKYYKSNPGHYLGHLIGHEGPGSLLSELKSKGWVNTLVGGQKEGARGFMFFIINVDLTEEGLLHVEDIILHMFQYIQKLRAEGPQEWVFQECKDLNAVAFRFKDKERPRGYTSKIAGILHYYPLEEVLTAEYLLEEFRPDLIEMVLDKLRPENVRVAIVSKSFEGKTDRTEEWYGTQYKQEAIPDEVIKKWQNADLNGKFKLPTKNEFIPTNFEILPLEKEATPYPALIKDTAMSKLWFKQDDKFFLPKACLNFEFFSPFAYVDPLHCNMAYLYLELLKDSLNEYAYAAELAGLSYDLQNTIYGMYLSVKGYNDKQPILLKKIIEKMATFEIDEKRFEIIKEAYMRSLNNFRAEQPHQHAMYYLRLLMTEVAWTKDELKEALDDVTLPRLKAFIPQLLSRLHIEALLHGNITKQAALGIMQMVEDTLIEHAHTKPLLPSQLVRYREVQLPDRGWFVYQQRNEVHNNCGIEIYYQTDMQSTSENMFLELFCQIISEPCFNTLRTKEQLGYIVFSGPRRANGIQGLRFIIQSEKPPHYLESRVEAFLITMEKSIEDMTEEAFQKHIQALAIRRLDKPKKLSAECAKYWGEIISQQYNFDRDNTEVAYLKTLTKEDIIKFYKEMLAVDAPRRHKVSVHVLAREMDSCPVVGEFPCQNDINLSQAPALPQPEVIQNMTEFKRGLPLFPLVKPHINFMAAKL
Description: cellular IDE activation of Abeta substrate cleavage – fluorescence polarization, HEK cells, dose response (AID 588439). It is filed as functional, cell-based.

In assay [4] the target is Ras and Rab interactor 1/Tyrosine-protein kinase ABL1 (Homo sapiens, UniProt P00519+Q13671). Type of assay: functional.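 Also: biochemical TR-FRET dose-response test measuring inhibition of binding between Rin1 and Abl proteins.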
Ras and Rab interactor 1/Tyrosine-protein kinase ABL1, sequence (P00519 whole entry): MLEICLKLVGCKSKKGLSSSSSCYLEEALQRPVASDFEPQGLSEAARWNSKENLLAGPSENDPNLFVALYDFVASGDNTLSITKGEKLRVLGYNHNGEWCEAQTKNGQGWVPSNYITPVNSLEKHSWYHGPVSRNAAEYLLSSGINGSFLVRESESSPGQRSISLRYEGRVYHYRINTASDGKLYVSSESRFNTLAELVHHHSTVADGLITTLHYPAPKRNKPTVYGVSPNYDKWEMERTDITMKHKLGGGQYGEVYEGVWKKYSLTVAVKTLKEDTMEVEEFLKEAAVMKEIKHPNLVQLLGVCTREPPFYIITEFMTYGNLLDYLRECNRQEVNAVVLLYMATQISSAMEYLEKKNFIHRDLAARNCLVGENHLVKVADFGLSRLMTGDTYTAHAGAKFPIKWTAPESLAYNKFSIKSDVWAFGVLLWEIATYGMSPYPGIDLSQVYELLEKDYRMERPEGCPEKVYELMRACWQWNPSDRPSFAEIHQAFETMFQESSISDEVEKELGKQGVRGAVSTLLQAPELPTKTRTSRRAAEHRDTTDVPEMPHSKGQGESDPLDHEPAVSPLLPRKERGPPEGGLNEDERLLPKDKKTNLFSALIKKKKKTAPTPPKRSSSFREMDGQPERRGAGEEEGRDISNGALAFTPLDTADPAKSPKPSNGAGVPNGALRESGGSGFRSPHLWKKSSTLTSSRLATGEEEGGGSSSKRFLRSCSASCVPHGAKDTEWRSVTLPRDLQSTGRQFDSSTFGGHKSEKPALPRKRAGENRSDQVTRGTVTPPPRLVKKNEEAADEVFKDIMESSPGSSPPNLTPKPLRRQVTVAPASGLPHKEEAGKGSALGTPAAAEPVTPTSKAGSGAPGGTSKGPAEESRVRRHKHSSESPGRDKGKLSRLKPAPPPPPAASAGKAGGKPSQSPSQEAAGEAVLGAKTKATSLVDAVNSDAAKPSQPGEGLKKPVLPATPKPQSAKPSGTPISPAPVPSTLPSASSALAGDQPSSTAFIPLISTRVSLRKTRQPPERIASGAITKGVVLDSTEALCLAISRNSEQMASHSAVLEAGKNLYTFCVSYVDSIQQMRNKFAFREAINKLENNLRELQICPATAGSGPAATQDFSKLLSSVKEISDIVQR
Ras and Rab interactor 1/Tyrosine-protein kinase ABL1, sequence (Q13671 whole entry): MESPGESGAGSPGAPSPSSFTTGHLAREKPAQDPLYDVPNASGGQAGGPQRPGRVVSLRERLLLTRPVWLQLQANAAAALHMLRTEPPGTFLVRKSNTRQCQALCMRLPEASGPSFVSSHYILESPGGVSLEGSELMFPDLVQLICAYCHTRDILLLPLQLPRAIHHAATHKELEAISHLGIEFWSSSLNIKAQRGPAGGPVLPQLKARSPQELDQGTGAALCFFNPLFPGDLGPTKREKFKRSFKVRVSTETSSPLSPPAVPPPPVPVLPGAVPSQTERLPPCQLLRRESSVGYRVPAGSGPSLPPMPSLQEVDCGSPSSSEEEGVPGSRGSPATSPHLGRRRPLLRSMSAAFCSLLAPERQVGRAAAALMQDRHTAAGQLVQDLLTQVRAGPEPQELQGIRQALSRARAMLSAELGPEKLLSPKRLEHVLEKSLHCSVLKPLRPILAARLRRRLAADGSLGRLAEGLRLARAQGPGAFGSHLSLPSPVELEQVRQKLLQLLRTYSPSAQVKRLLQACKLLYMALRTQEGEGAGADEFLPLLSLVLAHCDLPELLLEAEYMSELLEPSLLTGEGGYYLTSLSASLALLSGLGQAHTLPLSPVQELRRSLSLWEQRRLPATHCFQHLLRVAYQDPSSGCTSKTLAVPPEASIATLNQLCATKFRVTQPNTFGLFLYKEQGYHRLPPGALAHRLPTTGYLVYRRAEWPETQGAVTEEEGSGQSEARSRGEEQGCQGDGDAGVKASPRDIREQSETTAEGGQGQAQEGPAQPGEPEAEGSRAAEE
Assay [5] relates to HEK293. Description: membrane integrity loss in HEK cells – cell-based, fluorescence, cytotoxicity control for IDE activator project, dose response (AID 588440).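 Also: cytotoxicity by LDH release measuring loss of membrane integrity.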 Type of assay: functional. The following applies: Homo sapiens.
The target of assay [6] is T1, Insulin-degrading enzyme. Description: recombinant IDE activation, cell-free – biochemical, fluorescence polarization, counter-screen for IDE activator project, dose response (AID 588681).
The target of assay [7] is G-protein coupled receptor 55 (Homo sapiens, UniProt Q9Y2T6). Description: inhibition of LPI-stimulated GPR55 beta-arrestin translocation – imaging, U2OS, beta-arrestin-GFP, LPI agonist, primary screen (AID 2013).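 Also: antagonist potency measured as reduced agonist-driven arrestin aggregation.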 It is filed as functional.
G-protein coupled receptor 55, sequence (Q9Y2T6 whole entry): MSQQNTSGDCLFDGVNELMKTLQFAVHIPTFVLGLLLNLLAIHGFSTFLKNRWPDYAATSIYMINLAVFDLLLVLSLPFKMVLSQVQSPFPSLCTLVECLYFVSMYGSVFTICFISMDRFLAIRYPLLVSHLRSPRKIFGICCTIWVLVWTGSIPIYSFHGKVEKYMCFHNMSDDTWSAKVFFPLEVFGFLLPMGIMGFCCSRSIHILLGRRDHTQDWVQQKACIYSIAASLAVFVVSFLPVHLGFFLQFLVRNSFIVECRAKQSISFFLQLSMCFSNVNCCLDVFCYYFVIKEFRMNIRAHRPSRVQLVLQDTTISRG
The target in assay [8] is E3 ubiquitin-protein ligase Mdm2 (Homo sapiens, UniProt Q00987). The assay is described as follows: MDM2-luc reporter signal enhancers, multi-concentration potency testing, MDM2 ubiquitin-protein ligase inhibitor program, whole-cell format, luminescence detection, 384-well microplate (AID 1394).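 Also: MDM2 E3 inhibitors raise luminescence so EC50 is for signal enhancement.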 It is filed as functional.
E3 ubiquitin-protein ligase Mdm2, sequence (Q00987 whole entry): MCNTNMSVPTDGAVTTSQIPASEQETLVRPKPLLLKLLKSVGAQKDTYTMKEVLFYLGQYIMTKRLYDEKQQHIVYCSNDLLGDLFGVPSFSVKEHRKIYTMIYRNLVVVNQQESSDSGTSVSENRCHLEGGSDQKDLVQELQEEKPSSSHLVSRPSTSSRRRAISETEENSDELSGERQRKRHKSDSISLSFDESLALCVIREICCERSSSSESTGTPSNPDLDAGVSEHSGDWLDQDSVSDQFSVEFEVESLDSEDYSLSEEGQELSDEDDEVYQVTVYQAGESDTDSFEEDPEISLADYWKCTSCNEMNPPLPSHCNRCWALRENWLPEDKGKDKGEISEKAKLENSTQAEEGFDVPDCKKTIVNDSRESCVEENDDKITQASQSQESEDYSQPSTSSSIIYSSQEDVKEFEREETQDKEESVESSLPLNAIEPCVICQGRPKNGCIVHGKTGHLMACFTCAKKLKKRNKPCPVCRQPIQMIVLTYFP
The next assay has as its target Large T antigen (Simian virus 40, UniProt P03070). Type of assay: functional, Betapolyomavirus macacae.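 Also: Confirmatory-stage PubChem screen for compounds that inhibit SV40 T antigen.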
The next assay concerns the target T2, Streptokinase A (Streptococcus pyogenes serotype M1, UniProt P10520).
T2 sequence (P10520 whole entry): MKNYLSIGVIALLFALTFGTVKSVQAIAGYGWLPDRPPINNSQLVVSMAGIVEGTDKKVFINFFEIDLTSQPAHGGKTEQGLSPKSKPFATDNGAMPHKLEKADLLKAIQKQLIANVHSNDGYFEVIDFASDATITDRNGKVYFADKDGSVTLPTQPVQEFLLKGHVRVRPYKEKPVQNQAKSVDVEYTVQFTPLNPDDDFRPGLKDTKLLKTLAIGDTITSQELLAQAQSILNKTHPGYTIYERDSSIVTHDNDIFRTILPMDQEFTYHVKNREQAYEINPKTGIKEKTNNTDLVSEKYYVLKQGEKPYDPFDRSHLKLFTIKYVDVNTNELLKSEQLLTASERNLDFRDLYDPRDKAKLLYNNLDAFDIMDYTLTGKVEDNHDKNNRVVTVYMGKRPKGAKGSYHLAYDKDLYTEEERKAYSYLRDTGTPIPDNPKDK
Description: viability-normalized secreted streptokinase activity reduction – plasminogen activation absorbance, OD405, dose response (AID 1914).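 Also: secreted streptokinase activity via plasminogen activation per viability signal from cell pellet.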 Type of assay: functional, Streptococcus pyogenes M1 GAS.

A short description of assay [9]: Luminescent dose response cell-based high throughput screening assay for inhibitors of the Janus kinase 2 mutant JAK2V617F. [Related pubchem assays: 1446 (Primary screen.), 1521 (Confirmation assay.), 1486 (Counter screen.)]. It is filed as functional.
Assay [10] relates to Streptococcus sp. 'group A'. Description: Streptococcus pyogenes SK(-)GAS viability under kanamycin – luminescence, BacTiterGlo, confirmation, counter-screen for streptokinase expression inhibitor project, dose response (AID 1900). Type of assay: functional, organism-based.
A further assay concerns Streptococcus. The assay is described as follows: GAS UMAA2166 growth inhibition – luminescence, BacTiterGlo, counter-screen for streptokinase expression inhibitor project, dose response (AID 1915).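 Also: potency for reduction of bacterial viability or growth.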 It is filed as functional, organism-based.
The next assay concerns the target Transthyretin (Homo sapiens, UniProt P02766). Description: Luminescence-based cell-based high throughput dose response assay to identify activators of Transthyretin (TTR) transcription. Type of assay: functional.
The next assay deals with Vero. Description: viability of Vero cells under compound – cytotoxicity control for flavivirus capping enzyme inhibitors (AID 588742). Type of assay: functional. The following applies: Chlorocebus sabaeus.
Assay [11] addresses T3, Mannose-6-phosphate isomerase (Homo sapiens, UniProt P34949).
T3 sequence (P34949 whole entry): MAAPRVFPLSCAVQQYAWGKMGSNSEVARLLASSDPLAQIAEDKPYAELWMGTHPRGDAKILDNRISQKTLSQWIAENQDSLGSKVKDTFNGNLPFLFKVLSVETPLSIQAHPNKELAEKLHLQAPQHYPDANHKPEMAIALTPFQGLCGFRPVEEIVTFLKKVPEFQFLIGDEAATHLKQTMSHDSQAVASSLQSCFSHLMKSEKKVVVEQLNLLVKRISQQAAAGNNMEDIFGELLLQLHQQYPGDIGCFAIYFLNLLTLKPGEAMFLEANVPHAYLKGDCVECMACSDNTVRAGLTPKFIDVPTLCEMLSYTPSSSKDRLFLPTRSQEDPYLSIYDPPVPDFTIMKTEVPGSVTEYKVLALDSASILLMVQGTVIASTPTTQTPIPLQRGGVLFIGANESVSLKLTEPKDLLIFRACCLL
Description: MPI inhibition at elevated mannose 6-phosphate – biochemical, fluorescence intensity, high mannose 6-phosphate, primary screen (AID 1220).

Where “and” joins values, the source holds several entries; their conditions need not be identical. Identical values can stand only once. Calls of active or inactive are those of the source.

Glutathione-S-transferase, sequence (Q26513 whole entry): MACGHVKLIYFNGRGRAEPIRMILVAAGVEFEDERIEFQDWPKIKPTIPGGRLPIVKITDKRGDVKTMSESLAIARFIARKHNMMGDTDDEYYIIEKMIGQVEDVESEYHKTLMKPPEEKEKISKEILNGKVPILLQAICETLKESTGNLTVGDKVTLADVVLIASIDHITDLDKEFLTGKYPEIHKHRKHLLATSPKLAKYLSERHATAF
Large T antigen, sequence (P03070 whole entry): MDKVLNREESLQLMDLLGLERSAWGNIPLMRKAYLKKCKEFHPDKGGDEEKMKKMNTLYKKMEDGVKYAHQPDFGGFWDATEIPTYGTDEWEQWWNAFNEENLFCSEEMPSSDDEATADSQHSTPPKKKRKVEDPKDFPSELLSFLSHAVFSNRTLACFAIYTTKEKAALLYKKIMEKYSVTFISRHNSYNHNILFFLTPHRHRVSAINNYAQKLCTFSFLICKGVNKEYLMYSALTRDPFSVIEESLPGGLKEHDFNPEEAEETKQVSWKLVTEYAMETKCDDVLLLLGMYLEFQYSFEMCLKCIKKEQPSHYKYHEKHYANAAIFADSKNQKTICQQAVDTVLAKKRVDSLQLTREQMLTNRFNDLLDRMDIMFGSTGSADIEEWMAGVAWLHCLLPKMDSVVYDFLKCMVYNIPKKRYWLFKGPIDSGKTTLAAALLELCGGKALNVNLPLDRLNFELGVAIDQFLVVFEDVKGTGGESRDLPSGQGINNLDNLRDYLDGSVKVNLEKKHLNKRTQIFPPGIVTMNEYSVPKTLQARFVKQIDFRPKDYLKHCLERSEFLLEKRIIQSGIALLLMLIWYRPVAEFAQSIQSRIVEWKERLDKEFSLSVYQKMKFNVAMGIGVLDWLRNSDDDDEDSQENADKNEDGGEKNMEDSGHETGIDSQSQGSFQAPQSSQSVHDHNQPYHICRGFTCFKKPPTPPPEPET

Turning to `O=C(O)CCCC[C@@H]1SC[C@@H]2NC(=O)N[C@@H]21` [BIOTIN], the results for the EC50 in the assay on HEK293 [1], at Insulin-degrading enzyme [3] and on Insulin-degrading enzyme [6] were 2.06 µM (active), 2.37 µM (active) and 2.53 µM (active), respectively. The 50% inhibitory concentration (IC50) was < 0.2 µM (active) on Nonstructural protein 1; 0.85 µM (active) in [2]; > 3.73 nM (active) and 529 nM (active) in assay [4]; > 89.3 µM (inactive) in the assay on HEK293 [5].
With `CC1=NN(c2cccc(C(=O)O)c2)C(=O)/C1=C\C=C/c1ccccc1`, the IC50 was 3.3 µM (active) in assay [7] and 20.4 µM (active) on Large T antigen. Also, the 50% effective concentration (EC50) in assay [8] was 4.82 µM (active).
`O=C(Oc1cccc2c(O)cccc12)c1ccccc1`: the results for the EC50 (at Streptokinase A; in assay [10]; with Streptococcus) were 63.7 µM (active), 29 µM (active) and > 150 µM (not active), respectively. For the same compound, the IC50 in assay [9] was 7.47 µM (active).
With `Cc1ccc([C@H]2C[C@@H](O)[C@H](n3cc(-c4ccc(F)cc4)nn3)CN2C(=O)c2cccs2)cc1`, at Transthyretin, the EC50 was > 167 µM (inactive).
As to `CCc1cccc(C)c1N=C(S)NCC1CCN(c2ccc(OC)cc2)C1` (configuration not stated), the CC50 in the assay with Vero is > 40 µM (active). For the same compound, the IC50 in [11] was > 50 µM (not active).
